Earlier results in US5912253A, “Rapamycin derivatives” (Novartis AG, priority 1993, dated 1999).

Legend:
[1] = test system: macrophilin-12 (FK-506 binding protein or FKBP-12)
[2] = in vivo

Row | Compound | binding in vivo to macrophilin-12 [1] | bioavailability [2] | solubility
1 | CO[C@H]1C[C@@H]2CC[C@@H](C)[C@@](O)(O2)C(=O)C(=O)N2CCCC[C@H]2C(=O)O[C@H]([C@H](C)C[C@@H]2CC[C@@H](O)[C@H](OC)C2)CC(=O)[C@H](C)/C=C(\C)[C@@H](O)[C@@H](OC)C(=O)[C@H](C)C[C@H](C)/C=C/C=C/C=C/1C [Rapamycin, rapamycin] | known to bind in vivo to macrophilin-12 | very low and variable | highly insoluble
2 | C=CC[C@@H]1/C=C(\C)C[C@H](C)C[C@H](OC)[C@H]2O[C@@](O)(C(=O)C(=O)N3CCCC[C@H]3C(=O)O[C@H](/C(C)=C/[C@@H]3CC[C@@H](O)[C@H](OC)C3)[C@H](C)[C@@H](O)CC1=O)[C@H](C)C[C@@H]2OC [FK-506] | known to bind in vivo to macrophilin-12 |  | 
